Assay results from publication PMC6196238, “Novobiocin, a Newly Found TRPV1 Inhibitor, Attenuates the Expression of TRPV1 in Rat Intestine and Intestinal Epithelial Cell Line IEC-6” (Frontiers in Pharmacology, 2018).
One block for each compound: values may come before it.

Tests used:
[1] = test system: rat intestine (jejunum, ileum, colon); experiment: Ussing chamber intestinal permeability of NOVO; assay type: in vitro ADME; settings: NOVO in combination with 10 μM RR; Figure 1
Protocol: The intestinal permeability of CAP in vitro was performed using Ussing chamber. […] NOVO was also prepared in HEPES buffer to yield final concentration at 5, 10, 25, 50, 100, and 200 μM. Animal intestinal segments for the permeability study were prepared in accordance with the experimental method as described previously ([Yodoya et al., 1994]; [Wallon et al., 2005]; [Duan et al., 2013]). Briefly, male SD rats, weighting 240–260 g, were fasted for 18 h before each experiment and anesthetized by injecting 10 % chloral hydrate anesthesia (i.p.). Different portions of the rat intestine were excised and flushed with HEPES buffer, including jejunum (after the first 5 cm of the top of small intestine), ileum (the distal part of small intestine) and colon (proximal to cecal-colonic junction), and incubated in the ice-cold HEPES buffer. Next, 3–4 cm of the intestine was clipped, and the serosa was removed rapidly on an ice-cold glass. The intestinal segments were fixed in the Ussing chamber. Finally, 7 mL of HEPES buffer was added to the receiving side while an equal volume of drug solution to the dosing side. All the chambers were maintained at 37°C by using a warm water-circulating pump and a mixture of 95% O2 and 5% CO2 aerated to ensure the activity of the membrane. […]

IEC-6/TRPV1- cells [2] = experiment: CAP accumulation assay; assay type: cell-based, rat; settings: 2.5-10 μM NOVO, 10 μM RR, 0.1 μM SB-705498, Figure 3D
Protocol: The transfected cells were grown to 80% confluence in 12-well plates. The experiment was divided into three parts: […] SB-705498, RR or NOVO was then added to the medium for another 15, 30, and 60 min. […] After incubation, the medium was removed, and cell layers were washed three times with ice-cold PBS and then extracted with Membrane Protein Extraction Kit (Thermo Fisher Scientific Inc, Rockford, IL, United States), according to the manufacturer’s protocol. The cytosolic protein extracts were stored at -80°C until LC-MS/MS analysis. The plasma samples and protein sample with 100 μL were extracted with 400 μL of methanol involving IS (verapamil 50 ng⋅mL^-1) by vortex-mix for 1 min, ultrasonic extraction for 1 h, and then centrifugation for 30 min at 15000 g. The supernatant was transferred into a borosilicate glass and 2 μL was subjected to LC-MS/MS analysis. The LC-MS/MS system consisted of Agilent 6460 Triple Quadrupole LC/MS systems via an ESI interface. The samples were separated on an Agilent ZORBAX SB-C18 column (3.5 μm, 2.1 mm × 150 mm) and the column temperature was maintained at 30°C. The mobile phase consisted of acetonitrile and water contains 0.1% formic acid (70:30, v/v). The flow rate was 0.2 mL⋅min^-1. The ion source was an electrospray ionization interface in the positive mode. […] Other parameters were as follows: spray voltage, 4.0 kV; capillary temperature, 350°C; gas flow, 10 L⋅min^-1.

[3] = test system: rat intestine (jejunum, ileum, colon); experiment: Ussing chamber intestinal permeability of CAP; assay type: in vitro ADME; settings: CAP + 10 μM inhibitor; for fold-inhibition factor of CAP Papp: vs CAP only
Protocol: NOVO was also prepared in HEPES buffer to yield final concentration at 5, 10, 25, 50, 100, and 200 μM. […] Different portions of the rat intestine were excised and flushed with HEPES buffer, including jejunum (after the first 5 cm of the top of small intestine), ileum (the distal part of small intestine) and colon (proximal to cecal-colonic junction), and incubated in the ice-cold HEPES buffer. Next, 3–4 cm of the intestine was clipped, and the serosa was removed rapidly on an ice-cold glass. The intestinal segments were fixed in the Ussing chamber. Finally, 7 mL of HEPES buffer was added to the receiving side while an equal volume of drug solution to the dosing side. […] All the samples were kept at -20°C till HPLC analysis.
In brief, samples were injected into a C18 column (3.5 μm, 2.1 mm × 100 mm). An aliquot of 20 μL of sample solutions were injected.

IEC-6/TRPV1+ cells [4] = experiment: LDH release assay (cell membrane integrity); settings: for LDH release: IEC-6/TRPV1+; for LDH release compared with the control: NOVO 2.5, 5, 10 μM, CAP 25 μM, RR 10 μM, SB-705498 0.1 μM, 12 and 24 h
Protocol: (§4) The transfected cells were plated in 12-well plates. […] The cells were centrifuged at 1000 g for 5 min. Next, 50 μL of supernatants were aspirated and the rest of supernatants were discarded. The cells were washed twice with deionized water and then lysed by ultrasonic wave cracker. And then cell lysate and supernatants were analyzed by using LDH Release Assay Kit, according to the manufacturer’s instructions.

IEC-6/TRPV1- cells [5] = experiment: LDH release assay (cell membrane integrity)
Protocol: as §4

in vivo = settings: SD, rat, po, 10 mg
Protocol: Blood samples were collected into heparinized tubes before and at 30, 60, 120, 180, 210, 240, 270, 330, 390, and 720 min after administration. Blood samples were immediately centrifuged at 4000 g (4°C) for 10 min to obtain plasma. The plasma samples were stored at -80°C until LC-MS/MS analysis.
The plasma samples and protein sample with 100 μL were extracted with 400 μL of methanol involving IS (verapamil 50 ng⋅mL^-1) by vortex-mix for 1 min, ultrasonic extraction for 1 h, and then centrifugation for 30 min at 15000 g. The supernatant was transferred into a borosilicate glass and 2 μL was subjected to LC-MS/MS analysis.
The LC-MS/MS system consisted of Agilent 6460 Triple Quadrupole LC/MS systems via an ESI interface. The samples were separated on an Agilent ZORBAX SB-C18 column (3.5 μm, 2.1 mm × 150 mm) and the column temperature was maintained at 30°C. The mobile phase consisted of acetonitrile and water contains 0.1% formic acid (70:30, v/v). The flow rate was 0.2 mL⋅min^-1. The ion source was an electrospray ionization interface in the positive mode. […] Other parameters were as follows: spray voltage, 4.0 kV; capillary temperature, 350°C; gas flow, 10 L⋅min^-1.

IEC-6/TRPV1+ cells [6] = experiment: MTT cell viability assay; settings: for Cell Survival: IEC-6/TRPV1+
Protocol: (§1) The rat intestinal epithelial cell line IEC-6, purchased from Kunming Institute of Zoology. CAS, was cultured in Dulbecco’s Modified Eagle’s Medium (DMEM) (Gibco, Grand Island, NY, United States) supplemented with 10% fetal bovine serum (FBS; Gibco) at 37°C in a humidified atmosphere of 5% CO2.
(§2) The plasmid pENTER containing the TRPV1 coding sequence NM_080704 was used as template in a PCR with the following primers: 5′-[…]-3′ (forward) and 5′-[…] (reverse). And synthetic small interfering RNA (siRNA) specific for rat TRPV1 (TRPV1-siRNA) was purchased from Vigene Bioscience (Rockville, MD, United States) with the following sequences: 5′-[…]-3′ (forward) and 5′-[…]-3′ (reverse) for TRPV1-siRNA. The transfecting process was conducted by using the lipofectamin® 3000 transfection reagent (Invitrogen^TM, Carlsbad, CA, United States), according to the manufacturer’s protocol.
(§3) The transfected cells were plated in 96-well plates. […] Optical density at 490 nm was used to evaluate cell viability in 96-well plates.

IEC-6/TRPV1- cells [7] = experiment: MTT cell viability assay
Protocol: as §1, §2, §3

effect on permeability of NOVO across intestinal segments [1]: no change | Papp of CAP ([3]; colon): 12.18 ± 2.90 ×10^-6, cm⋅s^-1 | fold-inhibition factor of CAP Papp ([3]; colon): 1.64 fold | Papp of CAP ([3]; ileum): 5.06 ± 0.57 ×10^-6, cm⋅s^-1 | fold-inhibition factor of CAP Papp ([3]; ileum): 1.46 fold | Papp of CAP ([3]; jejunum): 2.54 ± 0.40 ×10^-6, cm⋅s^-1 | fold-inhibition factor of CAP Papp ([3]; jejunum): 1.23 fold | LDH release (IEC-6/TRPV1+ cells [4]; 10 μM, 12 h): 0.406 ± 0.056 gprot⋅mL ^-1 | LDH release (IEC-6/TRPV1+ cells [4]; 10 μM, 24 h): 0.301 ± 0.061 gprot⋅mL ^-1 | LDH release compared with the control (IEC-6/TRPV1+ cells [4]): not any significant difference | LDH release (IEC-6/TRPV1- cells [5]; 10 μM, 12 h): 0.552 ± 0.039 gprot⋅mL ^-1 | LDH release (IEC-6/TRPV1- cells [5]; 10 μM, 24 h): 0.501 ± 0.094 gprot⋅mL ^-1
Structure (SMILES): N.N.N.N.N.N.N.N.N.N.N.N.N.N.[Cl-].[Cl-].[Cl-].[Cl-].[Cl-].[Cl-].[O-2].[O-2].[Ru+3].[Ru+3].[Ru+4] [RR, ruthenium red]
accumulation of CAP, co-incubation (IEC-6/TRPV1- cells [2]): did not change

Structure (SMILES): COc1cc(CNC(=O)CCCC/C=C/C(C)C)ccc1O [CAP, capsaicin]
AUC(0-t) (in vivo): 230 ng·h/mL | Cmax (in vivo): 52.2 ± 8.92 ng/mL | Tmax (in vivo; Tmax of CAP): 3.9 h | Tmax (in vivo; peak time (Tmax) of CAP): ~4 h | LDH release (IEC-6/TRPV1+ cells [4]; 25 μM, 12 h): 0.380 ± 0.165 gprot⋅mL ^-1 | LDH release (IEC-6/TRPV1+ cells [4]; 25 μM, 24 h): 0.311 ± 0.051 gprot⋅mL ^-1 | LDH release compared with the control (IEC-6/TRPV1+ cells [4]): not any significant difference | Cell Survival (IEC-6/TRPV1+ cells [6]; 12.5 μM, incubation 12 h): 1.029 ± 0.180 | Cell Survival (IEC-6/TRPV1+ cells [6]; 12.5 μM, incubation 24 h): 0.916 ± 0.163 | Cell Survival (IEC-6/TRPV1+ cells [6]; 25 μM, incubation 12 h): 0.896 ± 0.199 | Cell Survival (IEC-6/TRPV1+ cells [6]; 25 μM, incubation 24 h): 0.822 ± 0.102 | Cell Survival (IEC-6/TRPV1+ cells [6]; 50 μM, incubation 12 h): 0.820 ± 0.201 | Cell Survival (IEC-6/TRPV1+ cells [6]; 50 μM, incubation 24 h): 0.739 ± 0.012 | concentration up to which more than 80% of the cells were viable (IEC-6/TRPV1+ cells [6]; both IEC-6/TRPV1+ and IEC-6/TRPV1-, incubated 24 h): 25 µM | Cell Survival (IEC-6/TRPV1- cells [7]; 12.5 μM, incubation 12 h): 0.969 ± 0.310 | Cell Survival (IEC-6/TRPV1- cells [7]; 12.5 μM, incubation 24 h): 0.934 ± 0.111 | Cell Survival (IEC-6/TRPV1- cells [7]; 25 μM, incubation 12 h): 0.851 ± 0.216 | Cell Survival (IEC-6/TRPV1- cells [7]; 25 μM, incubation 24 h): 0.878 ± 0.096 | Cell Survival (IEC-6/TRPV1- cells [7]; 50 μM, incubation 12 h): 0.792 ± 0.316 | Cell Survival (IEC-6/TRPV1- cells [7]; 50 μM, incubation 24 h): 0.801 ± 0.171 | LDH release (IEC-6/TRPV1- cells [5]; 25 μM, 12 h): 0.680 ± 0.205 gprot⋅mL ^-1 | LDH release (IEC-6/TRPV1- cells [5]; 25 μM, 24 h): 0.462 ± 0.101 gprot⋅mL ^-1
